Results as given in US10456441B2, “Augmenting the immune response by promoting cell death of immune cells” (The University of Vermont and State Agricultural College, priority 2014, dated 2019).

What was measured:
[1] = tested on: γδ T cells; assay: Mixed cultures of γδ T cells and BMDC: γδ T cell activation (IL-17, IFN-γ, CD25); type: cell-based, mice
Description: Cells were washed three times and then rocked with goat anti-rat conjugated magnetic beads at a 10:1 ratio of beads to cell at 4° C. for 45 min. Magnetic depletion was used to remove bead-bound cells. […] After 2 days, cells were removed from anti-TCR-γδ stimulation, supplied with fresh medium plus IL-2, and returned to culture at a density of 0.3×10^6 cells/ml. Cells were counted daily and supplied with fresh media containing 50 units/ml IL-2. […] In addition, in some experiments freshly isolated splenic γδ T cells were prepared using anti-γδ-coated magnetic beads (Miltenyi Biotec) and magnet purification.
(§1) The preparation of bone marrow-derived dendritic cells (BMDC) was done according to the method of Lutz et al. (26) using GM-CSF ([…] PeproTech, Rocky Hill N.J.) or GM-CSF plus IL-4 (10 μg/ml, PeproTech). Cells were used on day 7.
Day 7 γδ T cells and BMDC were cultured either individually or together at a 1:1 ratio (10^6 cells/ml each). To some cultures the following reagents were added: a sonicate of Borrelia burgdorferi (10 μg/ml), zVAD-fmk (MP Biomedical, Santa Ana Calif.) at the doses indicated, necrostatin (50 μM, R&D Systems, Minneapolis, Minn.), anti-TNF-α (10 μg/ml, Calbiochem, Darnstadt, Germany),, anti-IL-1 Receptor antagonist, Anakinra (200 ng/ml, Amgen, Thousand Oaks, Calif.), anti-IL-12 (10 μg/ml, BioLegend San Diego, Calif.), anti-IL-18 (10 μg/ml, MBL, Woburn Mass.), or rat IgG (10 μg/ml Jackson Immunoresearch, West Grove Pa.). Transwell assays were performed using 1×10^6 γδ T cells in 1 ml of complete medium+IL-2 placed in the lower chamber, with 5×10^5 DC in 100 μl placed in the upper chamber. […]
Cytokine levels of IFN-γ, IL-1β, IL-12p40, IL-12p70, IL-17, and TNF-α were detected using the Bio-Plex, MilliPlex, or Luminex immunoassay (Bio-Rad; Millipore-EMD; R&D Systems, Minneapolis, Minn.) according to the manufacturer's protocol. Briefly, samples were run undiluted or diluted 1:10 in RPMI complete media. 50 μl of the magnetic bead working solution was added to each well, then 50 μl of appropriate samples or standards were then added to wells and incubated at room temperature for 30-120 min at 800 rpm on an IKA MS 3 digital shaker. After three washes with 100 μl Bio-Plex wash buffer, incubation with 25 μl of detection antibody solution was done at room temperature for 30-60 min on the shaker. Following another set of three washes, 50 μl of streptavidin-phycoerythrin (PE) in assay buffer was added to each well and incubated as described for the previous step. After an additional three washes, 125 μl of assay buffer was added. Sample data was analyzed with Bio-Plex Manager software.
The following monoclonal antibodies to murine cell surface molecules were purchased from BioLegend: PE-conjugated anti-CD25, APC-conjugated anti-TCR-γδ, and TNF-α neutralizing antibody. Rat IgG was purchased from Jackson Immunoresearch (West Grove, Pa.). For direct staining, single cell suspensions (1×10^6 total cells per staining condition) were washed with cold (4° C.) PBS containing 1% (w/v) BSA fraction V (Sigma) (PBS/1% BSA), incubated with unconjugated rat IgG (50 μg/ml) for 15 min at 4° C., washed again, and then incubated with the appropriate antibodies in PBS/1% BSA. After washing, the cells were fixed with freshly made 1% (v/v) methanol-free formaldehyde (Ted Pella Inc., Redding, Calif.) in PBS/1% BSA.

[2] = biological target: T1, c-FLIP, caspase-8 (Mus musculus, UniProt O89110); assay: c-FLIP and active caspases in BMDC (biotin-VAD precipitation, immunoblot); type: cell-based, mice
T1 construct: endogenous in cells; host or cells: bone marrow-derived dendritic cells (BMDC), day 7, grown in GM-CSF with or without IL-4; whole cell lysates and biotin-VAD precipitates
T1 sequence (O89110 219-480): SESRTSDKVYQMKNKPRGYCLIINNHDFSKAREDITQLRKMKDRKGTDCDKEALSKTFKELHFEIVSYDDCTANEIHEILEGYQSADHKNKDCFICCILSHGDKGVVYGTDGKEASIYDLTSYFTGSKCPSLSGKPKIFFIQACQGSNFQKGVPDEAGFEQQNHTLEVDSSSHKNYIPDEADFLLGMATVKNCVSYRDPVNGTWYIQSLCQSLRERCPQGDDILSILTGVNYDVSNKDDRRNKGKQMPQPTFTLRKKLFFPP
T1 sequence (O35732 whole entry partner): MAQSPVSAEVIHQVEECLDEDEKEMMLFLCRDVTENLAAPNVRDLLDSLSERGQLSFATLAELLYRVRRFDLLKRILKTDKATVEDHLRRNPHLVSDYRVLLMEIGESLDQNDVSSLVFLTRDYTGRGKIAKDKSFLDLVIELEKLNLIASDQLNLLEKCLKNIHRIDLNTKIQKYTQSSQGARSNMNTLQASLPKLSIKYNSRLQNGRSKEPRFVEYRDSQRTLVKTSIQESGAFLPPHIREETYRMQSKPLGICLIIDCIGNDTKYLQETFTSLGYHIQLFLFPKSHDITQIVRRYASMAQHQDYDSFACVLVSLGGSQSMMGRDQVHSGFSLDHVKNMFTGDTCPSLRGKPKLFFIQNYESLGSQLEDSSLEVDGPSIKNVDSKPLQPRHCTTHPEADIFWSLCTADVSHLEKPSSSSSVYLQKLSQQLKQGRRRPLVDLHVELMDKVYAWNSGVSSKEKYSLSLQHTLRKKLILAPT
Description: as §1
Day 7 BMDC were lysed in Tris-buffer containing Complete Protease Inhibitor (Roche), 0.2% NP-40 (Roche), and biotin-VAD-fmk (10 μM, MP Biomedicals, Santa Ana, Calif.). Insoluble cell fragments were removed by centrifugation, and the protein concentration of the resulting whole cell lysates was determined by Bradford assay (BioRad, Hercules, Calif.). Whole cell lysates (30 μg per lane) were separated by SDS-PAGE. Precipitation of active caspases was performed by rocking 600 μg of whole cell lysates initially with sepharose 4B beads (Sigma) at 4° C. for 2 hours to remove nonspecific binding of proteins to the beads, followed by overnight rocking incubation with streptavidin-conjugated sepharose beads (Invitrogen) at 4° C. Release of biotin-VAD-fmk-labeled caspases from the streptavidin beads was achieved by heating to 95° C. for 10 min in Laemmli buffer. After gel electrophoresis, proteins were transferred to PVDF membranes (0.2 μm pore size, Bio-Rad), and immunoblots were performed using antibodies (1 μg/ml) against caspase-3, caspase-8 (both Cell Signaling, Danvers, Mass.), caspase-9 (Stressgen, Farmingdale, N.Y.), and RIPK1 (BD Biosciences).

[3] = tested on: human DC; assay: Cell death of human DC from peripheral blood monocytes; type: cell-based; details: addition of IL-4 to GM-CSF culture
Description: (§2) Human monocytes were obtained as CD14^− cells by magnetic bead purification (Miltenyi Biotech, Auburn, Calif.) from peripheral blood of healthy volunteers. Myeloid DC were prepared by culture of monocytes in AIM V media plus 10% fetal calf serum (HyClone) with 800 U/ml of granulocyte-macrophage colony-stimulating factor (GM-CSF), (BioLegend, San Diego, Calif.) without or with 500 U/ml IL-4 (BioLegend). Cell death was examined by terminal deoxynucleotidyl transferase dUTP nick end labeling (TUNEL). Briefly, cells were stained for expression of cell surface molecules, and then fixed with 1% methanol-free formaldehyde followed by 70% ethanol. After washing, the TUNEL reaction was performed by incubating cells in 50 μl of reaction mix containing 10 units of terminal deoxribosyl transferase (TdT), 2.5 mM cobalt chloride in 1× TdT buffer, and 0.2 pmol/μl of FITC-dUTP (Roche, Indianapolis, Ind.) at 37° C. for 1 hour. The cells were washed twice and fixed in 1% methanol-free formaldehyde. Murine thymocytes were included as a positive control for apoptotic cells. Flow cytometry was performed on an LSRII (BD Biosciences, San Jose, Calif.) calibrated with compensation beads (BD Biosciences). Analysis was performed using FlowJo software (Tree Star, Inc., Ashland, Oreg.).

[4] = tested on: BMDC; assay: Cell death of BMDC by TUNEL assay; type: cell-based, mice; details: GM-CSF-cultured BMDC, zVAD 50 μM + Necrostatin 50 μM
Description: as §1
as §2, with “Cell” for “Human monocytes were obtained as CD14^− cells by magnetic bead purification (Miltenyi Biotech, Auburn, Calif.) from peripheral blood of healthy volunteers. Myeloid DC were prepared by culture of monocytes in AIM V media plus 10% fetal calf serum (HyClone) with 800 U/ml of granulocyte-macrophage colony-stimulating factor (GM-CSF), (BioLegend, San Diego, Calif.) without or with 500 U/ml IL-4 (BioLegend). Cell”

[5] = human trials; cited from earlier work
[6] = γδ T cells + BMDC + B. burgdorferi, zVAD+Necrostatin, 20 h
[7] = exogenous TNF-α (2.5 μg/ml) added, absence of Borrelia

For “IL-4: cytokine added with GM-CSF during generation of BMDC; upregulates c-FLIP”, the “ability of BMDC to activate Borrelia-stimulated γδ T cells” value ([1]; BMDC grown with GM-CSF+IL-4, absence or presence of zVAD) was “much less able to activate”, the “level of c-FLIP” value ([2]; BMDC grown in GM-CSF+IL-4 vs GM-CSF, 7 days) was “considerably increased” and the “level of active caspase-8” value ([2]; BMDC grown in GM-CSF+IL-4 vs GM-CSF, bVAD precipitates) was “increase in the level of active caspase-8”. The “levels of total cellular caspase-8, caspase-9, or caspase-3” value ([2]; whole cell lysates, BMDC grown in GM-CSF or GM-CSF+IL-4) was “no difference” and the “zVAD-induced death of human DC” value [3] was “blocked”.

In the case of `CN1C(=O)C(Cc2c[nH]c3ccccc23)NC1=S` (centres unmarked) [Necrostatin], the “production of these cytokines (TNF-α, IL-17, IFN-γ); toxicity check” value ([1]; Necrostatin with Borrelia in the absence of zVAD) is reported as “did not block production”, the “TNF-α production by zVAD-treated BMDC” value [1, 6] is reported as “reversed” and the “production of IFN-γ by γδ T cells” value [1, 6] is reported as “reversed”. The “production of IL-17 by γδ T cells” value [1, 6] was “reversed” and the “cell death of zVAD-treated BMDC” value [4] was “rescued them from cell death”.

For TNF-α, the “production of IFNγ by γδ T cells” value [1, 7] was “did not augment production” and the “production of IL-17 by γδ T cells” value [1, 7] was “did not augment production”.

In the case of `C[C@H](NC(=O)C(=O)Nc1ccccc1C(C)(C)C)C(=O)N[C@@H](CC(=O)O)C(=O)COc1c(F)c(F)cc(F)c1F` [IDN-6556], the “preserving liver function during hepatitis C virus infection” value [5] is listed as “showing promise” and the serious side-effects [5] is listed as “without exhibiting serious side-effects”.
